In patent US7348025B2, “Small particle liposome aerosols for delivery of anticancer drugs” (priority 1999, dated 2008):
Where “and” joins values, the source holds several entries; their conditions need not be identical. Equal values may be shown once. Read-outs that look alike come from different tables or passages of the source.

What was measured:
[1] = Time dependent organ distribution of CPT after intranasal administration of DLPC liposomes; assay type: in vivo; conditions: other: intranasal instillation, mice, intranasal DLPC liposomal CPT 7 μg per mouse, read-out: CPT in tissue
Method: The mobile phase was 30% acetonitrile and 70% of 0.1% glacial acetic acid. CPT was detected using the Waters 470 scanning fluorescence detector set to an excitation wavelength of 370 nm and an emission wavelength of 440 nm. […] The data were analyzed with the Waters Millenium software. […]
CPT was administered in liposomal formulation prepared with DLPC with initial drug concentration 0.2 mg/ml.
35 μL of suspension was installed to each animal (group of 3 animals was treated for each time point).

[2] = Tissue distribution of CPT after inhalation of CPT liposome aerosol; assay type: in vivo, Mouse; conditions: mice; for CPT in tissue: individual animals; for concentration at 15 min: mouse, in vivo, 486 ng per mouse, 4 animals, read-out: MEAN (±SD) CPT in tissue
Method: The final suspension was clear. If precipitation occurred, it was reheated to 50-60° C. The preparation was frozen in liquid nitrogen and lyophilized overnight. For use the material was dissolved in sterile water to the appropriate drug concentration, not exceeding 1.0 mg/ml for either drug. The efficiency of incorporation of drug in the liposomes was examined qualitatively by microscopic examination under polarized light. Unincorporated drug was seen as bi-refringent crystals. The efficiency of incorporation was examined by centrifugation of aqueous suspensions of liposomes on Percoll™ gradients. One-tenth ml of suspension was layered over 2 ml of gradient and centrifuged at 2000 rpm for 25-30 minutes. Liposomes layer at the water-Percoll interface, while unincorporated drug was deposited at the bottom of the tube. Many other lipids may be substituted for DLPC in the formulation and use of liposomes for delivery of drugs by aerosol (26).
(§1) The mobile phase was 30% acetonitrile and 70% of 0.1% glacial acetic acid. CPT was detected using the Waters 470 scanning fluorescence detector set to an excitation wavelength of 370 nm and an emission wavelength of 440 nm. […] The data were analyzed with the Waters Millenium software.
The deposited dose was calculated to be 486 ng per mouse. The mean concentrations in lungs and liver were similar with smaller concentrations in the other sites examined. […] Drug was cleared promptly from the lungs so that 15 minutes after stopping nebulization only negligible amounts of drug were present in the lungs. Liver, kidney and spleen had substantial amounts of drug initially which gradually diminished through the one hour of study. […] These studies indicate substantial immediate deposition of drug in the lungs with rapid clearance to the viscera. The amount of drug contributed by absorption from swallowed drug is uncertain.

[3] = Time dependent organ distribution of CPT after intramuscular administration; assay type: in vivo; conditions: mouse, mice, i.m. CPT in DMSO/saline suspension, read-out: CPT in tissue
Method: as §1
Drug disappeared very slowly from the site of intramuscular injection in the first 12 hours, with only very small concentrations detected in the liver and virtually no drug present at other sites. Concentrations in the blood were negligible throughout the study. The dose administered was the same as that given by intranasal instillation. These findings indicate a speedier and more efficient systemic absorption of drug after pulmonary administration of drug than by the intramuscular route. It is likely that deposition in organs and vascular spaces will increase the opportunity for exposure to albumin molecules and degradation to the carboxyl form of the drug.

[4] = Blood, after 15 minutes inhalation of CPT liposome aerosol
[5] = Kidney, after 15 minutes inhalation of CPT liposome aerosol
[6] = Liver, after 15 minutes inhalation of CPT liposome aerosol
[7] = Spleen, after 15 minutes inhalation of CPT liposome aerosol
[8] = site of injection, 7 µg/mouse, Site of inj.
[9] = whole blood, 7 μg per mouse, Blood

SMILES: CC[C@@]1(O)C(=O)OCc2c1cc1n(c2=O)Cc2cc3ccccc3nc2-1 [CPT, 20-S-camptothecin]
- concentration at 0 min ([1]; Kidney): 542 ± 174 ng/g
- concentration at 15 min ([1]; Kidney): 190 ± 57 ng/g
- concentration at 30 min ([1]; Kidney): 49 ± 13 ng/g
- concentration at 60 min ([1]; Kidney): 24 ± 21 ng/g
- concentration at 0 min ([1]; Liver): 651 ± 418 ng/g
- concentration at 15 min ([1]; Liver): 255 ± 101 ng/g
- concentration at 30 min ([1]; Liver): 66 ± 17 ng/g
- concentration at 60 min ([1]; Liver): 34 ± 7 ng/g
- concentration at 0 min ([1]; Lung): 1290 ± 657 ng/g
- concentration at 15 min ([1]; Lung): 19 ± 3 ng/g
- concentration at 30 min ([1]; Lung): 36 ± 23 ng/g
- concentration at 60 min ([1]; Lung): 7 ± 3 ng/g
- concentration at 0 min ([1]; Spleen): 351 ± 137 ng/g
- concentration at 15 min ([1]; Spleen): 84 ± 32 ng/g
- concentration at 30 min ([1]; Spleen): 21 ± 8 ng/g
- concentration at 60 min ([1]; Spleen): 7 ± 2 ng/g
- concentration at 0 min ([1]; whole blood, Blood): 213 ± 19 ng/g
- concentration at 15 min ([1]; whole blood, Blood): 53 ± 20 ng/g
- concentration at 30 min ([1]; whole blood, Blood): 8 ± 3 ng/g
- concentration at 60 min ([1]; whole blood, Blood): 4 ± 2 ng/g
- CPT in tissue [2, 4]: 7.1 ng/gm and 8.3 ng/gm and 22.6 ng/gm and 17.7 ng/gm
- CPT in tissue [2, 5]: 21.8 ng/gm and 18.0 ng/gm and 50.0 ng/gm and 29.3 ng/gm
- CPT in tissue [2, 6]: 44.3 ng/gm (2×) and 21.9 ng/gm and 178.0 ng/gm
- CPT in tissue ([2]; Lung, after 15 minutes inhalation of CPT liposome aerosol (0.2 mg/ml in nebulizer)): 48.0 ng/gm and 27.0 ng/gm and 77.5 ng/gm and 52.0 ng/gm
- CPT in tissue [2, 7]: 16.4 ng/gm and 11.4 ng/gm and 25.0 ng/gm and 12.0 ng/gm
- concentration at 15 min [2, 4]: 13.9 ± 7.5 ng/g
- concentration at 15 min [2, 5]: 29.8 ± 14.3 ng/g
- concentration at 15 min [2, 6]: 72.1 ± 71.4 ng/g
- concentration at 15 min ([2]; Lung, after 15 minutes inhalation of CPT liposome aerosol): 51.1 ± 20.7 ng/g
- concentration at 15 min [2, 7]: 16.2 ± 6.3 ng/g
- concentration at 0 min ([3]; 7 μg per mouse, Kidney): 2 ng/g
- concentration at 30 min ([3]; 7 μg per mouse, Kidney): 40 ± 14 ng/g
- concentration at 60 min ([3]; 7 μg per mouse, Kidney): 26 ± 7 ng/g
- concentration at 1200 min ([3]; 7 μg per mouse, Kidney): 15 ± 5 ng/g
- concentration at 0 min ([3]; 7 μg per mouse, Spleen): 2 ± 1 ng/g
- concentration at 30 min ([3]; 7 μg per mouse, Spleen): 18 ± 9 ng/g
- concentration at 60 min ([3]; 7 μg per mouse, Spleen): 11 ± 5 ng/g
- concentration at 1200 min ([3]; 7 μg per mouse, Spleen): 5 ± 1 ng/g
- concentration at 60 min ([3]; 7 µg/mouse, Blood): 8 ± 1 ng/g
- concentration at 1200 min ([3]; 7 µg/mouse, Blood): 4 ± 1 ng/g
- concentration at 0 min ([3]; 7 µg/mouse, Liver): 3 ± 1 ng/g
- concentration at 30 min ([3]; 7 µg/mouse, Liver): 87 ± 74 ng/g
- concentration at 60 min ([3]; 7 µg/mouse, Liver): 136 ± 107 ng/g
- concentration at 1200 min ([3]; 7 µg/mouse, Liver): 126 ± 116 ng/g
- concentration at 0 min ([3]; 7 µg/mouse, Lung): 2 ± 1 ng/g
- concentration at 30 min ([3]; 7 µg/mouse, Lung): 4 ± 2 ng/g
- concentration at 60 min ([3]; 7 µg/mouse, Lung): 3 ± 3 ng/g
- concentration at 1200 min ([3]; 7 µg/mouse, Lung): 4 ± 3 ng/g
- concentration at 0 min [3, 8]: 6920 ± 265 ng/g
- concentration at 30 min [3, 8]: 4310 ± 1550 ng/g
- concentration at 60 min [3, 8]: 4610 ± 1410 ng/g
- concentration at 1200 min [3, 8]: 1540 ± 751 ng/g
- concentration at 0 min [3, 9]: 2 ± 1 ng/g
- concentration at 30 min [3, 9]: 12 ± 5 ng/g
